For experiment [1], the system named is Tyrosine-protein kinase ABL1 (Homo sapiens), P00519 [Q252H]. Briefly: (§1) Selectivity interaction (LanthaScreen Eu Kinase Binding Assay) EUB0001632a ABL1. As to conditions: at 10 µM. A general note: TR-FRET usually uses a lanthanide donor and a delayed reading to cut background.
The subject of experiment [2] is Tyrosine-protein kinase ABL1 (Homo sapiens), P00519 [H396P]. Described as §1. As to conditions: at 10 µM.
For experiment [3], the system named is Tyrosine-protein kinase ABL1 (Homo sapiens), P00519 [M351T]. Described as §1. As to conditions: at 10 µM.
The target of experiment [4] is T1, Histone-lysine N-methyltransferase SETD7 (Homo sapiens) (UniProt Q8WTS6).
T1 sequence (whole entry): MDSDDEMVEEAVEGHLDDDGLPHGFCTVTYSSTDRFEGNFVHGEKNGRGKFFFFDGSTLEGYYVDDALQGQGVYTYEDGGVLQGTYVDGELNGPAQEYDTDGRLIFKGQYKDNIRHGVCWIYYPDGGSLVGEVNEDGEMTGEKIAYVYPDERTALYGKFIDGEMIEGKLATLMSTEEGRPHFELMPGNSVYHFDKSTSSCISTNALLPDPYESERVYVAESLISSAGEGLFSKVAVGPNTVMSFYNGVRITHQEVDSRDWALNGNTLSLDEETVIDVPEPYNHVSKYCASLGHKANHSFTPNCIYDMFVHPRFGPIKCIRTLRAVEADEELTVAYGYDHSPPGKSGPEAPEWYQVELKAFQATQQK
Briefly: Selectivity interaction (Methyltransferase screen (Scintillation proximity assays)) EUB0000255b SETD7. (In general: SPA uses beads or plates that emit light when radiolabelled molecules are held near them.)

The target in experiment [5] is T2, Phosphatidylinositol 5-phosphate 4-kinase type-2 alpha (Homo sapiens) (UniProt P48426).
T2 sequence (whole entry): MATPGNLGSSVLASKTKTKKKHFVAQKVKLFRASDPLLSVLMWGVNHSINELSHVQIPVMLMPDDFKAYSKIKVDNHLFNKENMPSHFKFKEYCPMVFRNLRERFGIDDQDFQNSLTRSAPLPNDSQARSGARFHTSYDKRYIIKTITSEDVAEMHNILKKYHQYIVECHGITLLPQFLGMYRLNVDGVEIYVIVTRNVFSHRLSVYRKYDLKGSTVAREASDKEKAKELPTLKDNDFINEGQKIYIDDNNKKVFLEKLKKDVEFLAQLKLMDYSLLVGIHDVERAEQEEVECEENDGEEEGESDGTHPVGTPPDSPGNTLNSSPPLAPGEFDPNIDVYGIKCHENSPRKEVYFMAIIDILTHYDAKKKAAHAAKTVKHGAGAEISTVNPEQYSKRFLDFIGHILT
As to conditions: at 1 µM.

The target in experiment [6] is T3, Muscle, skeletal receptor tyrosine-protein kinase (Homo sapiens) (UniProt O15146).
T3 sequence (whole entry): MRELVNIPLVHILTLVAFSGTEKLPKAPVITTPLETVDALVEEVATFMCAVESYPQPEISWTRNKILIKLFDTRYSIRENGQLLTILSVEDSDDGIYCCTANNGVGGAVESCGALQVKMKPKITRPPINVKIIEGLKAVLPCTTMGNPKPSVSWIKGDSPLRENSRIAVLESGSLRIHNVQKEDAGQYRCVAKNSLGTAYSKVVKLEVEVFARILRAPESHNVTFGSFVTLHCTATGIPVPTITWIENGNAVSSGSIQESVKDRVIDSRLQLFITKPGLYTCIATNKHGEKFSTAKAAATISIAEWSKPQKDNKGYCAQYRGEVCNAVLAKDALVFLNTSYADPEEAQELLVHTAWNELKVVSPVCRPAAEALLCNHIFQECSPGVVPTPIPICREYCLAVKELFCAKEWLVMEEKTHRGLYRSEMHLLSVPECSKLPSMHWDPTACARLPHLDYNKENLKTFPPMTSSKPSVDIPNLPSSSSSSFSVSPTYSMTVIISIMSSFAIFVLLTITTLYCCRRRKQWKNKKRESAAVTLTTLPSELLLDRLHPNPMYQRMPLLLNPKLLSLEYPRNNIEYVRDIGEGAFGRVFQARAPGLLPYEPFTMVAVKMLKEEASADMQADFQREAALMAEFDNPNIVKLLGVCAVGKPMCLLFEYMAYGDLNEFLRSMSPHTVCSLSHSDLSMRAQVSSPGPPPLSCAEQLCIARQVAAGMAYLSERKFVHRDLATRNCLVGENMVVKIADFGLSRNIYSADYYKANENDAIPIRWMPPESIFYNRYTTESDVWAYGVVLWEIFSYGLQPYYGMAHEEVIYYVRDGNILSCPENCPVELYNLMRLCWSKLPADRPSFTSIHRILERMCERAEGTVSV
As to conditions: at 10 µM.

The subject of experiment [7] is Tyrosine-protein kinase ABL1 (Homo sapiens), P00519 [E255K]. As to conditions: at 10 µM.
The target of experiment [8] is Serine/threonine-protein kinase PAK 6 (Homo sapiens) (UniProt Q9NQU5). Briefly: Selectivity interaction (SelectScreen profiling (Invitrogen)) EUB0000607a PAK6. As to conditions: at 2 µM.
The target of experiment [9] is Leucine-rich repeat serine/threonine-protein kinase 2 (Homo sapiens, UniProt Q5S007). As to conditions: at 10 µM.
Experiment [10] deals with T4, Mast/stem cell growth factor receptor Kit (Homo sapiens, UniProt P10721). Briefly: Selectivity interaction (Kinase panel (Invitrogen)) EUB0000639a KIT. As to conditions: at 200 nM.
In experiment [11] the target is Ribosomal protein S6 kinase beta-1 (Homo sapiens, UniProt P23443). Briefly: Selectivity interaction (ProQinase) EUB0000171b RPS6KB1.
For experiment [12], the target named is Serine/threonine-protein kinase pim-1 (Homo sapiens, UniProt P11309). Briefly: Selectivity interaction (Ambit KINOMEscan and KiNATiv profiling in Jurkat cells) EUB0000090b PIM1. In kind it is cell-based. As to conditions: at 1 µM.
The target of experiment [13] is T4, Mast/stem cell growth factor receptor Kit. Briefly: Selectivity interaction (KinomeScan (DiscoverX)) EUB0001049a KIT. As to conditions: at 1 µM.
The target in experiment [14] is Vasopressin V1a receptor (Homo sapiens) (UniProt P37288). Briefly: Selectivity interaction (Panel of kinases, GPCRs, ion channels and transporters (enzymatic assay)) EUB0000223bCl AVPR1A.
Experiment [15] in a line: Selectivity interaction (KinomeScan (DiscoverX)) EUB0000092b CDPK1. As to conditions: at 10 µM.
Experiment [16] deals with Serine/threonine-protein kinase pim-3 (Homo sapiens) (UniProt Q86V86). Briefly: Selectivity interaction (KinomeScan (DiscoverX)) EUB0001079a PIM3. As to conditions: at 1 µM.

Sequence of Ribosomal protein S6 kinase beta-1 (P23443 whole entry, looked up): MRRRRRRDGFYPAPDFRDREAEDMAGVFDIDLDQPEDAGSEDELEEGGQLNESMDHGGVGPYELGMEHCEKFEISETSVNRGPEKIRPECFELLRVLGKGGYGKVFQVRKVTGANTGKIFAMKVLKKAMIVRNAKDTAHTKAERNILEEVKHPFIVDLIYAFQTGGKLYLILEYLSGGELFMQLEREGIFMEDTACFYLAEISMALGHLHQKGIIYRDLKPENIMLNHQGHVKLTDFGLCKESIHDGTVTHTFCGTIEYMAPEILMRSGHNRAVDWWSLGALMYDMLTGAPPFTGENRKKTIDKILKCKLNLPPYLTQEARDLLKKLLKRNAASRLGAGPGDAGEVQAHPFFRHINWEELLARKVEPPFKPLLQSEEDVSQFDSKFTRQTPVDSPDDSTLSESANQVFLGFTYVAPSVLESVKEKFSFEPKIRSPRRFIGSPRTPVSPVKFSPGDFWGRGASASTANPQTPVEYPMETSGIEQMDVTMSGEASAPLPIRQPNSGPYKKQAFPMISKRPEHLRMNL
T4 sequence (P10721 whole entry): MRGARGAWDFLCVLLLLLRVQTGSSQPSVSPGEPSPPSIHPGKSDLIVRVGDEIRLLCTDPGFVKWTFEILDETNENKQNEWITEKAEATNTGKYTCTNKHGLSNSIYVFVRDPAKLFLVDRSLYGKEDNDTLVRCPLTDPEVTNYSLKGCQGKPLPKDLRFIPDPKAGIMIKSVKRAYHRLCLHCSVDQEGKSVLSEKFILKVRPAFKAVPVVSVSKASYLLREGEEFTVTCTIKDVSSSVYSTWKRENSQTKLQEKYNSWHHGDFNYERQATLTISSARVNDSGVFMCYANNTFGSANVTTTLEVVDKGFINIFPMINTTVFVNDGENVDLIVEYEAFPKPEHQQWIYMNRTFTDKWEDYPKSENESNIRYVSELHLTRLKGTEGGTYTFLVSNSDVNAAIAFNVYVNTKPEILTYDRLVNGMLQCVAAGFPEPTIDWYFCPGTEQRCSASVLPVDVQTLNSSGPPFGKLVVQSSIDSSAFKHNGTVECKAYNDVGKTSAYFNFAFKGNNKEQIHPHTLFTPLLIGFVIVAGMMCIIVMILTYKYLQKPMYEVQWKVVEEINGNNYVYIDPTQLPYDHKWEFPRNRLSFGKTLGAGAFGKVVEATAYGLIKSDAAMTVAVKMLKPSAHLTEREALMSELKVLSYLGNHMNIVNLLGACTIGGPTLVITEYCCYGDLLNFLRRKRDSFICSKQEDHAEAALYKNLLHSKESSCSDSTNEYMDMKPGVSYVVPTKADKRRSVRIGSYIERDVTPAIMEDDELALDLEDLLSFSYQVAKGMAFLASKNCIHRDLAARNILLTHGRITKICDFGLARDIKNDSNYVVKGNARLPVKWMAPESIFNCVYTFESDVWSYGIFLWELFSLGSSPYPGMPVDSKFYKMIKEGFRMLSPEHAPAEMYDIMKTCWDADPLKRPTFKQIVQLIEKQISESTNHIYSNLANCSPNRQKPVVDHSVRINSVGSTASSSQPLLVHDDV
Sequence of Vasopressin V1a receptor (Homo sapiens) (P37288 whole entry, looked up): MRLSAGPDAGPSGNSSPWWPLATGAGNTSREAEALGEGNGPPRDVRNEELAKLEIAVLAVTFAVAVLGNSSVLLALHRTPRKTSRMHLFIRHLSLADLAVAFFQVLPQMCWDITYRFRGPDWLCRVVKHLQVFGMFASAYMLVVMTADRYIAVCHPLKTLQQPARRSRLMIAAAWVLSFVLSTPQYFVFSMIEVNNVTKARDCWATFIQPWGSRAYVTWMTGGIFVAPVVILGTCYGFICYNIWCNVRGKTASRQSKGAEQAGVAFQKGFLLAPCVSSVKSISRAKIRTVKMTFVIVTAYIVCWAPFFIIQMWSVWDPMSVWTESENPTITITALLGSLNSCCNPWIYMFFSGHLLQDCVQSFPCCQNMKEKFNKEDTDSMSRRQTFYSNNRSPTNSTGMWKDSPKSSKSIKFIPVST
Sequence of Leucine-rich repeat serine/threonine-protein kinase 2 (Q5S007 whole entry): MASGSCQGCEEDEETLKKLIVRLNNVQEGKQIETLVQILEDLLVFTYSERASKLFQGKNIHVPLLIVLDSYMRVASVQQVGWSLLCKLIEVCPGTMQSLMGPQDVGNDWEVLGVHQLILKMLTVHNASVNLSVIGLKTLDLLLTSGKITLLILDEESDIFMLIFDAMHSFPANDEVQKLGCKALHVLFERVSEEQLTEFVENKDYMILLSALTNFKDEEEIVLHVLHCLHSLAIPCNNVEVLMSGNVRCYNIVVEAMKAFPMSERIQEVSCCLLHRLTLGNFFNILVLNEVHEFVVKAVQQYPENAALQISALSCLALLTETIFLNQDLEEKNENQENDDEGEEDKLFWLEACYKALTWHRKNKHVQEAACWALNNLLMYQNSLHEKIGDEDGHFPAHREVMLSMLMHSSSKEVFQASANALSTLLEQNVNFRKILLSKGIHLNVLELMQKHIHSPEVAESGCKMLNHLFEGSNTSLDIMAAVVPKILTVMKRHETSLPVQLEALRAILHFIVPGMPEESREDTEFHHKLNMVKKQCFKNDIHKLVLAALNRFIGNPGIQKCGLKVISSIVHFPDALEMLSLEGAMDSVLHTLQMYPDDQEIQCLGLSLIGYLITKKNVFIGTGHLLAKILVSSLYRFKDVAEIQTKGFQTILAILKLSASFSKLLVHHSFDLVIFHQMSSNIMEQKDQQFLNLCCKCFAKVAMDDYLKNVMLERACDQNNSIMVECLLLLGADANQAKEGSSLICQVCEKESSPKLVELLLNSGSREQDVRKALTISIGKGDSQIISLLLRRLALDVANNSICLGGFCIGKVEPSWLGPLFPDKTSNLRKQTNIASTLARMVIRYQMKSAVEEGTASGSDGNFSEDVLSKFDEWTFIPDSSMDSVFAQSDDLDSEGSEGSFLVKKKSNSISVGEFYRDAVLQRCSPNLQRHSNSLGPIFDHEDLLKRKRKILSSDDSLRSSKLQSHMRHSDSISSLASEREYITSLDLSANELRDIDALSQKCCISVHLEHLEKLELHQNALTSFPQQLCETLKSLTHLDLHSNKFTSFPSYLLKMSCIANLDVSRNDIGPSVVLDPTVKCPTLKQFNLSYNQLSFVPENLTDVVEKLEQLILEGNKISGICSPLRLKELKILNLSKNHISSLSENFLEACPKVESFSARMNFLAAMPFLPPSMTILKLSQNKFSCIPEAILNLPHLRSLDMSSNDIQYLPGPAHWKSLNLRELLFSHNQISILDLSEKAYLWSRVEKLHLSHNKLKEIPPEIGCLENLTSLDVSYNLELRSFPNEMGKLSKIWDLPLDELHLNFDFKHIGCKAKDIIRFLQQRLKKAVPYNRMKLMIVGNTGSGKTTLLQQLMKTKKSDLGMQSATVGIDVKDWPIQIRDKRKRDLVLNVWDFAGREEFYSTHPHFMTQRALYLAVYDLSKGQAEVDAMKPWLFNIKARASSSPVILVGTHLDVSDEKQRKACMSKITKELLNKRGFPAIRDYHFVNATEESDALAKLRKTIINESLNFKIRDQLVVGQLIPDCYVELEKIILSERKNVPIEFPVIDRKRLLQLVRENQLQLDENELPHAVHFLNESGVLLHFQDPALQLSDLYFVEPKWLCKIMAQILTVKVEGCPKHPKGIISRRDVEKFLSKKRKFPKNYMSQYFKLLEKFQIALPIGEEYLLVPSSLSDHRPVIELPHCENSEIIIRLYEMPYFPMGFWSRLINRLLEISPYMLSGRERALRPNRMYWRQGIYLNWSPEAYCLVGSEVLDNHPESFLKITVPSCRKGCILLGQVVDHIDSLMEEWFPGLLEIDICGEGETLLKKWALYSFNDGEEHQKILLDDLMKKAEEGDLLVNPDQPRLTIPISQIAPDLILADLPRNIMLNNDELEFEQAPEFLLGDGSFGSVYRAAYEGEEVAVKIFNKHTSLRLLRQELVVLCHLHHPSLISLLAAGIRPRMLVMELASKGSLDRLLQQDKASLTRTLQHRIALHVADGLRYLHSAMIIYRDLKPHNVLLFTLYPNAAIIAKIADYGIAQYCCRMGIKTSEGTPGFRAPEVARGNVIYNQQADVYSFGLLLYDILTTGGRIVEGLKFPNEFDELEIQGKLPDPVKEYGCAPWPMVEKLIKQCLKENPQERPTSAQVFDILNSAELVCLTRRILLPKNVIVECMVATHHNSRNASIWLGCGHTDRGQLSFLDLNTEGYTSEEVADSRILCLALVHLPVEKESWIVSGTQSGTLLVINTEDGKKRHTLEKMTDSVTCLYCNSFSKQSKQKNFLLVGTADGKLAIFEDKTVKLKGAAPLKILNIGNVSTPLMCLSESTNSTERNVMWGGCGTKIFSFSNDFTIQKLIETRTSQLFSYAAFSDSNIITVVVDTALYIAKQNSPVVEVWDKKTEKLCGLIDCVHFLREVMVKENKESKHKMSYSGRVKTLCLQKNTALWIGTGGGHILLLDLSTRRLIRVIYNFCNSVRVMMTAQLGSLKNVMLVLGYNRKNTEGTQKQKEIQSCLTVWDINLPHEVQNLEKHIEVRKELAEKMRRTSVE
Sequence of Serine/threonine-protein kinase PAK 6 (Homo sapiens) (Q9NQU5 whole entry, looked up): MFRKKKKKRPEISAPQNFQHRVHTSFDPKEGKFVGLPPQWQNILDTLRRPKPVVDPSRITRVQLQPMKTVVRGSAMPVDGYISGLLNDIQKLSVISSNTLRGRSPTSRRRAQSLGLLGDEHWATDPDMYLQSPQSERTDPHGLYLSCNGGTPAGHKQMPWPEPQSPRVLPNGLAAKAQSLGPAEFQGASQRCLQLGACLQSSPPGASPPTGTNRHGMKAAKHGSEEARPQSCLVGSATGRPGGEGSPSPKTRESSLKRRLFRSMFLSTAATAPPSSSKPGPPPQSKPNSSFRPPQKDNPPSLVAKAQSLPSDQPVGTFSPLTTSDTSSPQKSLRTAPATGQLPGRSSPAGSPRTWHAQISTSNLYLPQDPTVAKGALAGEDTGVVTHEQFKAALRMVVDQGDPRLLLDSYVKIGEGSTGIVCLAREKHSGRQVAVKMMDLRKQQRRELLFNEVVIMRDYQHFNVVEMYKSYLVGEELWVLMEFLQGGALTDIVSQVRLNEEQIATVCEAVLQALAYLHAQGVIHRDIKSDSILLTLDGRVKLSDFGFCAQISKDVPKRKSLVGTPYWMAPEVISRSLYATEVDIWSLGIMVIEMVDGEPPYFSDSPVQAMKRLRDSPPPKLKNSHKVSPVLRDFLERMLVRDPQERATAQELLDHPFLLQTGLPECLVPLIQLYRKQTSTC

Consider `Cn1cc(-n2cnc3c(NCc4nc5cc(Cl)c(Cl)cc5[nH]4)nc(N4CCOCC4)nc32)cn1`, for which the values for the % of inhibition in experiment [1], in experiment [2] and in [3] were -18.3%, -3.27% and -10.1%, respectively. As to `COCCN1CCC(c2cc(CN(C)C(=O)c3cccc(Oc4ccccc4)c3)ccn2)CC1`, the % activity was > 95% in experiment [4] (at 1 µM) and > 90% in experiment [4] (at 10 µM). For the compound `CC[C@@H](Nc1c(C#N)c(-c2ccc(-c3cccc(C)c3F)cc2)nc2cnccc12)C(=O)O` [BAY-091], the % of inhibition in experiment [5] is 142%. For the compound `CCN(CC)CCCCNc1ncc2cc(-c3cc(OC)cc(OC)c3)c(NC(=O)NC(C)(C)C)nc2n1`, the % of control in experiment [6] and in [7] was 100% throughout. Take `CNC(=O)Nc1ccc(-c2nc(N3CC4CCC(C3)O4)c3cnn(C4CCC5(CC4)OCCO5)c3n2)cc1`: in experiment [8], the % of inhibition was 11%. For `Cc1cc([C@@H](C)Nc2ccccc2C(=O)O)c2nc(N3CCOCC3)cc(=O)n2c1` [AZD-6482], the % of control in experiment [9] stood at 100%.

For the compound `CC[C@@H]1[C@H](F)C(=O)N[C@@H]1COc1nccc2cc(C(N)=O)c(OC)cc12` [ZIMLOVISERTIB], the % of inhibition in [10] stood at 2.99%. `C=CC(=O)Nc1cccc(C(=O)Nc2ccc(Nc3cc(-c4[nH]c(SC)nc4C)ccn3)cc2)c1`: the % of control was 105% in experiment [11] (at 1 µM) and 87% in experiment [11] (at 5 µM). In turn, `CN(C)C/C=C/C(=O)Nc1ccc(C(=O)N2CCCC(Nc3ncc(Cl)c(-c4c[nH]c5ccccc45)n3)C2)cc1` (stereo not drawn) showed a % of control in [12] of 100%.

Consider `COc1cc(Nc2nc(C)cc(-c3cnn4nc(OC)ccc34)n2)cc(C(F)(F)F)c1`, for which the % of control in experiment [13] turned out to be 75%. As for `COc1cc(C(=O)N2CC[C@@H](O)[C@@H](N)C2)cc2nc(-c3cc4ccccc4n3CC3CC3)n(C)c12`, in experiment [14], the pXC50 worked out at 4.6 M. In experiment [15], `CCC(=O)N1CCN(c2ccc(-n3c(=O)ccc4cnc5ccc(-c6cnc7ccccc7c6)cc5c43)cc2C(F)(F)F)CC1` displayed a % of control of 36%. `Nc1cnc(N2CCc3cc(S(=O)(=O)Nc4c(F)cc(Cl)cc4F)cc(N4CCCC4=O)c32)nc1` [TP-020n] had a % of control in experiment [16] of 98%.

For the origin of these results see ChEMBL document CHEMBL5465560, “Selectivity Literature for EUbOPEN Chemogenomic Library” (2024).
